Marks after values point to notes of the source that are not given here. Ends that are not written are not given here. Peptide text beside a SMILES is read from it. * marks the point of attachment. Biotin = O=C1N[C@H]2[C@H](CS[C@H]2CCCCC(=O)*)N1
B1: immX3AVD + holoTf (immX3AVD peptide incubated with 10 ug/well holotransferrin) (peptide, part only; not given: holotransferrin, not shown: large carriers)
peptide: Biotin-KKGFYKKKQCRPSKGRKRGFCWAVD
modifications: cysteine pairing not given here; also: non-covalent mixture/complex with holotransferrin, stoichiometry not given here

How the values were obtained:
[1] = tested on: HFF-1 human fibroblast cell line; experiment: Collagen stimulating activity in HFF-1 dermal fibroblasts (Collagen-1 ELISA); assay type: cell-based; conditions: peptide 2 uM, 72 hour; control (buffer) set to 100
Experimental: Immodulin peptides have potential untility in the field of cosmetics. HFF-1 human fibroblast cell line was obtained from the American Type Culture Collection (ATCC). Cells were grown in a T-75 flask in DMEM Medium containing 10% fetal bovine serum and penicillin-streptomycin at 37° C. in a humidified, 5% CO2 incubator. Cells ([…], 2,000 cells/well) were plated in a 96-well plate and incubated overnight at 37° C. in a humidified, 5% CO2 incubator. Next day, […] of compounds were added (quadruplicate wells). After 72 hour incubation with the compound, supernatants were collected for Collagen-1 ELISA assay and cell viability was measured in a luminometer after the addition of […] CellTiterGlo reagent (Promega Inc, Madison, WI) as recommended by the manufacturer. Collagen stimulating activity of immodulin peptides in HFF-1 dermal fibroblasts: Peptides were added to cells at 2 uM. Collagen-1A1 (COL1) immunoreactivity was measured in the supernatants of cultured cells by ELISA using a rabbit monoclonal anti-COL1 primary antibody (Abcam, Cambridge, MA). Control (buffer) value of immunoreactivity was set to 100.

[2] = PIP-binding membrane assay (Membrane Lipid Strips); parameters: key: —: −−− no binding; +++ strong binding; conditions: 400 ng peptide
Experimental: N-terminally biotinylated versions of the peptides listed below were used in various assays listed in the examples. For the two types of phosphatidylinositon phosphate (PIP)-binding assays, imm1-imm6 peptides were used.
In the PIP-binding membrane assay, 400 ng of each peptide was bound to Membrane Lipid Strips (Catalog # P-6002, Echelon Biosciences, Salt Lake City, UT) and developed according to the manufacturer's instructions. Binding to PIPs was as follows (−−− no binding; +++ strong binding): […]

[3] = tested on: THP1-Dual monocyte reporter cell line; experiment: THP1-Dual myeloid cell differentiation assay (PMA protocol); assay type: cell-based, human; conditions: PMA 24 h, then peptide 0.33 uM or 0.66 uM 24 h; for CD169+ (AU): relative to immX3AVD = 100
Experimental: Mammalian cell differentiation assays employed the THP1-Dual monocyte reporter cell line (Invivogen Inc, San Diego, CA) seeded at 2×10e5 cells per well in 96-well plates and cultured at 37 degrees C. in RPMI-1640 growth medium plus 10% fetal bovine serum and 1% penicillin/streptomycin. Cells were subsequently treated for 24 hours with 100 ng/ml Phorbol 12-myristate 13-acetate (PMA protocol; Cayman Chemical Company, Ann Arbor, MI). Peptide (0.33 uM or 0.66 uM, as indicated) was then added, and incubation continued for an additional 24 hours. Culture supernatants were assayed for CCL22. Plates with adherent cells were washed with PBS and assayed for immunoreactivity of surface markers such as CD169, Clec9a or Clec12a using fuorescent tag- or biotin-labeled anti-human antibodies purchased from Miltenyi Biotec (Auburn, CA) and the secondary detection reagent recommended by the manufacturer.

[4] = Plate binding of FITC-labelled heparin to immobilised biotinylated peptides; conditions: 400 ng peptide/well, 1 ug FITC-heparin, PBS; normalized to immX3 peptide binding = 100
Experimental: (§1) Effects of pH, PIP2 and size classes: Streptavidin-coated 96-well plates (G-Biosciences, St. Louis, MO) were pre-loaded with biotinylated peptides [see Example 1] at 400 ng/well, at room temperature for 60 minutes. The plate was washed with PBS buffer and then 1 ug FITC-labelled heparin or hyaluronic acid (FITC-HMW-HA) in 100 uL PBS buffer was added per well (all tests done in quadruplicate). Incubation proceeded for 90 minutes at room temperature, followed by two PBS washes. The plate was read in a standard laboratory fluorometer (488/525 nm exitation/[…]) and the counts normalized for immX3 peptide binding=100. Values statistically above background are shown in bold font. **p<0.05 versus immX3AVD.

[5] = Plate binding of FITC-labelled hyaluronic acid to immobilised biotinylated peptides; conditions: 400 ng peptide/well, 1 ug FITC-HMW-HA, PBS; normalized to immX3 peptide binding = 100
Experimental: as §1

[6] = Plate assay: biotinylated peptide on streptavidin plates, FITC-labelled PIP2; assay type: binding; conditions: 400 ng peptide per well; for FITC-PIP2 fluorescence, Background Control: EDTA background; for FITC-PIP2 fluorescence, Ferric Iron: with ferric iron; for FITC-PIP2 fluorescence, Zinc: with zinc
Experimental: In the plate assay, biotinylated peptides imm3 and imm5 were bound to 96-well, streptavidin-coated plates (BioLegend corporaton, San Diego, CA) at 400 ng per well in PBS buffer at room temperature for 60 mins. Plates were washed in PBS and developed with FITC-labelled PIP2 (purchased from Cayman Chemical Co, Ann Arbor, MI). Fluorescence was counted in a laboratory fluorescence spectrophotometer. The results were as follows (EDTA background set to =100; **p<0.01 vs background control): […]

[7] = biological target: pure recombinant CD44 protein (Abcam); experiment: plate assay, pH 5.2, peptide + 10 ug/well holotransferrin, no hyaluronan (CONTROL), 100 ng/well CD44, anti-CD44 mAb/TMB detection
[8] = biological target: pure recombinant CD44 protein (Abcam); experiment: plate assay, pH 7.4, peptide + 10 ug/well holotransferrin + 10 ug/well LMW-hyaluronan (CD44 capture through HA), anti-CD44 mAb/TMB detection
[9] = biological target: pure recombinant CD44 protein (Abcam); experiment: plate assay, pH 5.2, peptide + 10 ug/well holotransferrin + 10 ug/well HMW-hyaluronan (CD44 capture through HA), anti-CD44 mAb/TMB detection
[10] = biological target: pure recombinant CD44 protein (Abcam); experiment: plate assay, pH 5.2, peptide + 10 ug/well holotransferrin + 1.5 ug/well HMW-hyaluronan (CD44 capture through HA), anti-CD44 mAb/TMB detection
[11] = biological target: pure recombinant CD44 protein (Abcam); experiment: plate assay, pH 5.2, peptide + 10 ug/well holotransferrin + 10 ug/well LMW-hyaluronan (CD44 capture through HA), anti-CD44 mAb/TMB detection
[12] = biological target: pure recombinant CD44 protein (Abcam); experiment: plate assay, pH 7.4, peptide + 10 ug/well holotransferrin + 10 ug/well HMW-hyaluronan (CD44 capture through HA), anti-CD44 mAb/TMB detection
[13] = biological target: pure recombinant CD44 protein (Abcam); experiment: plate assay, pH 7.4, peptide + 10 ug/well holotransferrin, no hyaluronan (CONTROL), 100 ng/well CD44, anti-CD44 mAb/TMB detection
[14] = biological target: pure recombinant CD44 protein (Abcam); experiment: plate assay, pH 7.4, peptide + 10 ug/well holotransferrin + 1.5 ug/well HMW-hyaluronan (CD44 capture through HA), anti-CD44 mAb/TMB detection

Chain of pure recombinant CD44 protein (Abcam) (P16070 whole entry): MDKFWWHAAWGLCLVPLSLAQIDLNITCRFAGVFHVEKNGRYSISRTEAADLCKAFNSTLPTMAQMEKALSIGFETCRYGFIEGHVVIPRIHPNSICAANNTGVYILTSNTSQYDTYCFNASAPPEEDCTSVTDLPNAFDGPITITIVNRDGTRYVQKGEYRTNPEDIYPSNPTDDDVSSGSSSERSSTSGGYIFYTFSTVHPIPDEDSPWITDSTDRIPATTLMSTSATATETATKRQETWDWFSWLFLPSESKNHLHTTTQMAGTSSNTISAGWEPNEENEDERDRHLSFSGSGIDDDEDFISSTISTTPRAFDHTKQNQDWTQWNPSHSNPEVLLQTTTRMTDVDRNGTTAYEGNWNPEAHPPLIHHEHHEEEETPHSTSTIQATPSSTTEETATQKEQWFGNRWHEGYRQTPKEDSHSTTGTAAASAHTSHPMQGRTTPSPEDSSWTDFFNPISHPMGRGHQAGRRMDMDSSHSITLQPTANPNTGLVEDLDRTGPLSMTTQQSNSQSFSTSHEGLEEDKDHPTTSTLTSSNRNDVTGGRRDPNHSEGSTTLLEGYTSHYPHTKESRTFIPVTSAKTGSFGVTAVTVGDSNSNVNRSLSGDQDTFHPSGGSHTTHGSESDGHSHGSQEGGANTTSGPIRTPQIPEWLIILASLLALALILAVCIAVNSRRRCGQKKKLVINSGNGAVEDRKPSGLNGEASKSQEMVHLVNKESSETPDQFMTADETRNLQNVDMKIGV

Row | Molecule | COL1 (Collagen-1A1 immunoreactivity in supernatant) [1] | Binding to Phosphatidylinositol [2] | Binding to PtdIns(4,5)P [PIP2] [2] | CD169+ (AU) [3] [AU] | Heparin binding (fluorescence counts) [4] | Hyaluronate binding (fluorescence counts) [5] | further results
1 | CC[C@H](C)[C@H](NC(=O)CNC(=O)[C@H](CCCNC(=N)N)NC(=O)[C@H](CCCCN)NC(=O)[C@H](CCCNC(=N)N)NC(=O)CNC(=O)[C@H](CCCNC(=N)N)NC(=O)[C@H](CO)NC(=O)[C@@H]1CCCN1C(=O)[C@H](CCCCN)NC(=O)[C@H](CS)NC(=O)[C@H](CCC(N)=O)NC(=O)[C@H](CCCCN)NC(=O)[C@H](CCCNC(=N)N)NC(=O)[C@H](CCCCN)NC(=O)[C@H](Cc1ccc(O)cc1)NC(=O)[C@H](Cc1ccccc1)NC(=O)CNC(=O)[C@H](CCCCN)NC(=O)[C@@H](N)CCCNC(=N)N)C(=O)N[C@@H](CS)C(=O)N[C@@H](Cc1c[nH]c2ccccc12)C(=O)O [imm5] (H-RKGFYKRKQCKPSRGRKRGICW-OH) | 93 | — | +++ | 36.5 ± 3.0 | 95.1 ± 25.7 | 60.0 ± 8.6** | FITC-PIP2 fluorescence, Background Control [6]: 1.8 ± 0.5; FITC-PIP2 fluorescence, Ferric Iron [6]: 23.4 ± 3.5**; FITC-PIP2 fluorescence, Zinc [6]: 5.0 ± 1.2**
2 | AFNSYELGSKKGFYKKKQCRPSKGRKRGFCW [imm3K9.1] | 156** |  |  |  |  |  | 
3 | AFNSYELGSKGFYKKKQCRPSKGRKRGFCW [imm3K9] | 155** |  |  |  |  |  | 
4 | AFNSYELGSKGFYKKKQCRPSKGRKRGFCWAVDKY [imm3K9c] | 158** |  |  |  |  |  | 
5 | N=C(N)NCCC[C@H](NC(=O)CNC(=O)[C@H](CCCCN)NC(=O)[C@H](CO)NC(=O)[C@@H]1CCCN1C(=O)[C@H](CCCNC(=N)N)NC(=O)[C@H](CS)NC(=O)[C@H](CCC(N)=O)NC(=O)[C@H](CCCCN)NC(=O)[C@H](CCCCN)NC(=O)[C@H](CCCCN)NC(=O)[C@H](Cc1ccc(O)cc1)NC(=O)[C@H](Cc1ccccc1)NC(=O)CNC(=O)[C@H](CCCCN)NC(=O)[C@@H](N)CCCCN)C(=O)N[C@@H](CCCCN)C(=O)N[C@@H](CCCNC(=N)N)C(=O)NCC(=O)N[C@@H](Cc1ccccc1)C(=O)N[C@@H](CS)C(=O)N[C@@H](Cc1c[nH]c2ccccc12)C(=O)O [imm3] (H-KKGFYKKKQCRPSKGRKRGFCW-OH) | 101 | — | +++ | 27.8 ± 3.0 | 104.2 ± 22.0 | 57.2 ± 5.7** | Binding to PtdIns(4)P [PIP1] [2]: —; CCL22 ([3]; culture supernatant): 55.3 ± 16.1 pg/mL; FITC-PIP2 fluorescence, Background Control [6]: 1.0 ± 0.8; FITC-PIP2 fluorescence, Ferric Iron [6]: 26.2 ± 5.7**; FITC-PIP2 fluorescence, Zinc [6]: 4.7 ± 1.3**
6 | FNSYELGSLKKGFYKKKQCRPSKGRKRGFCW [imm3K8] | 98 |  |  |  |  |  | 
7 | CC(C)C[C@H](NC(=O)[C@H](C)NC(=O)[C@@H]1CCCN1C(=O)[C@H](Cc1c[nH]cn1)NC(=O)[C@H](CS)NC(=O)[C@H](CCC(N)=O)NC(=O)[C@H](CCCCN)NC(=O)[C@@H]1CCCN1C(=O)[C@H](Cc1c[nH]cn1)NC(=O)[C@H](Cc1ccccc1)NC(=O)[C@H](CC(N)=O)NC(=O)CNC(=O)[C@H](CC(N)=O)NC(=O)[C@@H](N)CCCNC(=N)N)C(=O)N[C@@H](CC(=O)O)C(=O)NCC(=O)N[C@@H](CCC(N)=O)C(=O)N[C@@H](CCCNC(=N)N)C(=O)NCC(=O)N[C@@H](CCCCN)C(=O)N[C@@H](CS)C(=O)N[C@@H](Cc1c[nH]c2ccccc12)C(=O)O [imm4] (H-RNGNFHPKQCHPALDGQRGKCW-OH) | 105 | — | — | 3.8 ± 1.1 | 6.8 ± 24.1 | 14.6 ± 22.6 | Binding to PtdIns(3,4,5)P [PIP3] [2]: —; Binding to PtdIns(4)P [PIP1] [2]: —
8 | B1 |  |  |  |  |  |  | CD44 immunoreactivity (AU) (AU (immX3AVD + 1.5 ug HMW-HA = 100)) [7]: 12; CD44 immunoreactivity (AU) (AU (immX3AVD + 1.5 ug HMW-HA = 100)) [8]: 38.7; CD44 immunoreactivity (AU) (AU (immX3AVD + 1.5 ug HMW-HA = 100)) [9]: 94.8; CD44 immunoreactivity (AU) (AU (immX3AVD + 1.5 ug HMW-HA = 100)) [10]: 103; CD44 immunoreactivity (AU) (AU (immX3AVD + 1.5 ug HMW-HA = 100)) [11]: 27.4; CD44 immunoreactivity (AU) (AU (immX3AVD + 1.5 ug HMW-HA = 100)) [12]: 107; CD44 immunoreactivity (AU) (AU (immX3AVD + 1.5 ug HMW-HA = 100)) [13]: 3.1; CD44 immunoreactivity (AU) (AU (immX3AVD + 1.5 ug HMW-HA = 100)) [14]: 98.3

Source: patent US20240034761A1, “REGENERATION OF MAMMALIAN TISSUES USING SYNTHETIC IMMODULINS” (priority 2022, published 2024)
